Laboratory results as given in ChEMBL document CHEMBL1201862, “PubChem BioAssay data set” (2004).
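In this assay, cells in 96-well plates receive the compound at five concentrations for 48 hours. Endpoints are linearly interpolated between the surrounding concentrations. GI50: concentration for 50% inhibition of growth.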 Active and inactive are the calls of the source. Cut-off read from the data, not from the text of the source: active = GI50 up to about 1.1 µM and inactive = higher.

Columns and labels:
Experiment in all cases: inhibition of tumour cell growth, NCI panel, 48 h
SK-MEL-28 = system: SK-MEL-28
SK-MEL-2 = system: SK-MEL-2
CAKI-1 = system: CAKI-1
NCI/ADR-RES = system: NCI/ADR-RES
A549 = system: A549
M14 = system: M14
U-251 = system: U-251
SK-OV-3 = system: SK-OV-3
SK-MEL-5 = system: SK-MEL-5
HCT-15 = system: HCT-15
Malme-3M = system: Malme-3M
HCT-116 = system: HCT-116
UACC-257 = system: UACC-257
OVCAR-4 = system: OVCAR-4
OVCAR-5 = system: OVCAR-5
MDA-N = system: MDA-N
CCRF-CEM = system: CCRF-CEM
K562 = system: K562
LOX IMVI = system: LOX IMVI
HOP-92 = system: HOP-92

SMILES | GI50 (SK-MEL-28) | GI50 (SK-MEL-2) | GI50 (CAKI-1) | GI50 (NCI/ADR-RES) | GI50 (A549) | GI50 (M14) | GI50 (U-251) | GI50 (SK-OV-3) | GI50 (SK-MEL-5) | GI50 (HCT-15) [µM] | GI50 (Malme-3M) | GI50 (HCT-116) | GI50 (UACC-257) | GI50 (OVCAR-4) | GI50 (OVCAR-5) | GI50 (MDA-N) | GI50 (CCRF-CEM) | GI50 (K562) | GI50 (LOX IMVI) | GI50 (HOP-92)
Oc1cc(O)c2c(c1)OC(c1ccc(O)c(O)c1)C(OC1(c3cc(O)c(O)c(O)c3)Oc3cc(O)cc(O)c3C(O)C1O)C2 (centres undefined) | > 40.6 µM (inactive) | 24.5 µM (inactive) | 29.8 µM (inactive) | 30.2 µM (inactive) | 27.7 µM (inactive) | 24.7 µM (inactive) | 20.8 µM (inactive) | > 65.5 µM (inactive) | 18.3 µM (inactive) | 36 | 87.9 µM (inactive) | 24.6 µM (inactive) | 37.4 µM (inactive) | 26.4 µM (inactive) | 21.8 µM (inactive) | 20.3 µM (inactive) | 15.1 µM (inactive) | 21.1 µM (inactive) | 18.3 µM (inactive) | 29.6 µM (inactive)
Cc1ccc(/C=C2\CN(C)CC3C2=NN(c2ccccc2)C3c2ccc(C)cc2)cc1 (centres undefined) | > 100 µM (inactive) | 29.4 µM (inactive) | > 100 µM (inactive) | > 100 µM (inactive) | > 100 µM (inactive) | 57.4 µM (inactive) | 33.3 µM (inactive) | 63.8 µM (inactive) | > 100 µM (inactive) | > 100 | 36.6 µM (inactive) | > 100 µM (inactive) | > 100 µM (inactive) | > 100 µM (inactive) | > 10 µM (inactive) | > 100 µM (inactive) | 29 µM (inactive) | 46.7 µM (inactive) | > 100 µM (inactive) | > 100 µM (inactive)
O=C(O)CN1C(=O)c2ccc(NC(=O)C(=O)O)cc2S1(=O)=O | > 100 µM (inactive) | > 100 µM (inactive) | > 100 µM (inactive) | > 100 µM (inactive) | > 100 µM (inactive) | > 100 µM (inactive) | > 100 µM (inactive) | > 100 µM (inactive) | > 100 µM (inactive) | > 100 | > 100 µM (inactive) | > 100 µM (inactive) | > 100 µM (inactive) | > 100 µM (inactive) | > 100 µM (inactive) | > 100 µM (inactive) | > 100 µM (inactive) | > 100 µM (inactive) | > 100 µM (inactive) | > 100 µM (inactive)
c1c[nH]c(CN2CCOCC2)n1 | > 100 µM (inactive) | > 100 µM (inactive) | > 100 µM (inactive) | > 100 µM (inactive) | > 100 µM (inactive) | > 100 µM (inactive) | > 100 µM (inactive) | > 100 µM (inactive) | > 100 µM (inactive) | > 100 | > 100 µM (inactive) | > 100 µM (inactive) | > 100 µM (inactive) | > 100 µM (inactive) | > 100 µM (inactive) | > 100 µM (inactive) | > 100 µM (inactive) | > 100 µM (inactive) | > 100 µM (inactive) | > 100 µM (inactive)
Cc1ccc(S(=O)(=O)NC(CCC(=O)NN)C(=O)NN)cc1 (centres undefined) |  | > 100 µM (inactive) | > 100 µM (inactive) | > 100 µM (inactive) | > 100 µM (inactive) | > 100 µM (inactive) | > 100 µM (inactive) | > 100 µM (inactive) | > 100 µM (inactive) | 0.304 | > 100 µM (inactive) | > 100 µM (inactive) | > 100 µM (inactive) | 16.5 µM (inactive) | > 100 µM (inactive) | > 100 µM (inactive) | > 100 µM (inactive) | > 100 µM (inactive) | > 100 µM (inactive) | > 100 µM (inactive)
O=C1CC(C(=O)O)Cc2c(Br)ccc(O)c21 (centres undefined) | > 100 µM (inactive) | > 100 µM (inactive) | > 100 µM (inactive) | > 100 µM (inactive) | > 100 µM (inactive) | > 100 µM (inactive) | > 100 µM (inactive) | > 100 µM (inactive) | > 100 µM (inactive) | > 100 | > 100 µM (inactive) | > 100 µM (inactive) | > 100 µM (inactive) | > 100 µM (inactive) | > 100 µM (inactive) | > 100 µM (inactive) | > 100 µM (inactive) | > 100 µM (inactive) | > 100 µM (inactive) | 29 µM (inactive)
Cc1cc(O)c2c3c(ccc2c1)C(=O)c1c(O)cccc1C3=O [TETRANGULOL] | > 100 µM (inactive) | 10.3 µM (inactive) | > 100 µM (inactive) | 5.97 µM (inactive) | 5.14 µM (inactive) | 0.675 µM (active) | 21 µM (inactive) | > 83.2 µM (inactive) | 0.33 µM (active) | 1.92 | 0.0157 µM (active) | 11.2 µM (inactive) | 2.28 µM (inactive) | 4.57 µM (inactive) | > 51.3 µM (inactive) | 0.188 µM (active) | 30.1 µM (inactive) | 18.6 µM (inactive) | 5.57 µM (inactive) | > 100 µM (inactive)
O=C1CS(=O)(=O)C(c2cccc(Oc3ccccc3)c2)N1C1CC1 (centres undefined) | 90.6 µM (inactive) | 45.1 µM (inactive) | 0.045 µM (active) | 28.1 µM (inactive) | 35.6 µM (inactive) | 41.1 µM (inactive) | 32.5 µM (inactive) | 33.3 µM (inactive) | 18.9 µM (inactive) | 30.3 | > 100 µM (inactive) | 25.5 µM (inactive) | 33.2 µM (inactive) | 29.2 µM (inactive) | 62.2 µM (inactive) | 26.7 µM (inactive) | 60.1 µM (inactive) | 50.9 µM (inactive) | 41.7 µM (inactive) | 23.4 µM (inactive)
CCOP(=O)(OCC)C(=C1C=C(C(C)(C)C)C(=O)C(C(C)(C)C)=C1)P(=O)(OCC)OCC | > 10 µM (inactive) | > 10 µM (inactive) | 3.33 µM (inactive) | > 10 µM (inactive) | > 10 µM (inactive) | 1.97 µM (inactive) | > 10 µM (inactive) | > 10 µM (inactive) | > 10 µM (inactive) | 3.1 | 1.82 µM (inactive) | 2.54 µM (inactive) | > 8.15 µM (inactive) | 1.87 µM (inactive) | > 10 µM (inactive) | > 5.68 µM (inactive) | 1.14 µM (inactive) | > 4.8 µM (inactive) | > 10 µM (inactive) | 2.39 µM (inactive)
Clc1ccc(CCNC2(c3cc4ccccc4s3)CCCCC2)cc1Cl | 25.2 µM (inactive) | 19 µM (inactive) | 29.5 µM (inactive) | 24 µM (inactive) | 47.8 µM (inactive) | 23.8 µM (inactive) | 23.9 µM (inactive) | 29.6 µM (inactive) | 15.6 µM (inactive) | 15.3 | 19.5 µM (inactive) | 12.4 µM (inactive) | 19 µM (inactive) | 33.3 µM (inactive) | 19.5 µM (inactive) | 32.3 µM (inactive) | 12.9 µM (inactive) | 15.5 µM (inactive) | 18.5 µM (inactive) | 3.84 µM (inactive)
Cc1nc2ccccc2n1CCc1nc2ccccc2s1 | > 100 µM (inactive) | 86.9 µM (inactive) | > 100 µM (inactive) | 40.6 µM (inactive) | 23.8 µM (inactive) | 33 µM (inactive) | 75 µM (inactive) | > 100 µM (inactive) | 2.88 µM (inactive) | 87.7 | 17.3 µM (inactive) | 25.9 µM (inactive) | 9.95 µM (inactive) | 42.3 µM (inactive) | > 100 µM (inactive) | 48.9 µM (inactive) | 14 µM (inactive) | 11 µM (inactive) | 64.9 µM (inactive) | 32.9 µM (inactive)
CCCCOCOc1ccccc1P1(=O)COc2ccccc2OC1 | > 100 µM (inactive) | > 100 µM (inactive) | > 100 µM (inactive) | > 100 µM (inactive) | 88.5 µM (inactive) | 83.9 µM (inactive) | > 100 µM (inactive) | > 100 µM (inactive) | > 100 µM (inactive) | 87.1 | > 100 µM (inactive) | 62.5 µM (inactive) | 67.3 µM (inactive) | 42.2 µM (inactive) | > 100 µM (inactive) | > 100 µM (inactive) | > 100 µM (inactive) | 52.2 µM (inactive) | > 100 µM (inactive) | 74.1 µM (inactive)
C=C1c2nc3ccccc3n2C=C(c2ccc(C)cc2)N1c1ccc(C)cc1 | > 100 µM (inactive) | 47.5 µM (inactive) | > 100 µM (inactive) | 17.9 µM (inactive) | 52.6 µM (inactive) | 56.1 µM (inactive) | 86.3 µM (inactive) | > 100 µM (inactive) | 19.8 µM (inactive) | 23.8 | > 63.2 µM (inactive) | 43.7 µM (inactive) | 67.3 µM (inactive) | 69.5 µM (inactive) | > 100 µM (inactive) | 20.6 µM (inactive) | 33 µM (inactive) | 19.9 µM (inactive) | 34.8 µM (inactive) | 68.5 µM (inactive)
CCOC(=O)C1=NN(c2ccc(C)cc2)C2(c3ccccc3)C=C(c3ccccc3)N(C)CCN12 (centres undefined) | > 100 µM (inactive) | > 100 µM (inactive) | > 100 µM (inactive) | > 100 µM (inactive) | > 100 µM (inactive) | > 100 µM (inactive) | > 100 µM (inactive) | > 100 µM (inactive) | > 100 µM (inactive) | > 100 | > 100 µM (inactive) | > 100 µM (inactive) | 62.4 µM (inactive) | > 100 µM (inactive) | > 100 µM (inactive) | > 100 µM (inactive) | > 100 µM (inactive) | 71 µM (inactive) | > 100 µM (inactive) | > 100 µM (inactive)
